Data published in the NIST ThermoML archive (doi:10.1016/j.fluid.2013.10.033).
Numbers after ± are expanded uncertainties.

Tests used:
[1] = 298.15 K; 101.33 kPa; Liquid; Vibrating tube method
[2] = refractive index (Na D-line) (dimensionless); conditions: 298.15 K; 101.33 kPa; Liquid; Standard Abbe refractometry
[3] = xn = mol fraction of the nth substance listed; conditions: 298.15 K, 101 kPa, Liquid, Vibrating tube method

SMILES | mass density [1] [kg/m3] | refractive index [2] | also measured
CC1CCCCC1 [methylcyclohexane] | 765.02 ± 0.24 | 1.42062 ± 0.0007 | –
CCOS(=O)(=O)[O-].CC[n+]1ccccc1 [1-ethylpyridinium ethyl sulfate] + c1ccccc1 | – | – | mass density ([3]; x2 = 0.406): 1171.69 ± 1.6 kg/m3
CCOS(=O)(=O)[O-].CC[n+]1ccccc1 [1-ethylpyridinium ethyl sulfate] + CC1CCCCC1 | – | – | mass density ([3]; x2 = 0.013): 1248.79 ± 1.7 kg/m3
CCOS(=O)(=O)[O-].CC[n+]1ccccc1 [1-ethylpyridinium ethyl sulfate] + C1=CCCCC1 | – | – | mass density ([3]; x2 = 0.041): 1243.4 ± 1.8 kg/m3
CCOS(=O)(=O)[O-].CC[n+]1ccccc1 [1-ethylpyridinium ethyl sulfate] + C1CCCCCCC1 | – | – | mass density ([3]; x2 = 0.009): 1249.15 ± 1.2 kg/m3
CCOS(=O)(=O)[O-].CC[n+]1ccccc1 [1-ethylpyridinium ethyl sulfate] + C1CCCCC1 | – | – | mass density ([3]; x2 = 0.017): 1247.74 ± 1.8 kg/m3

The next lines start with results.

mass density [1] [kg/m3] | refractive index [2] | SMILES | also measured
831.47 ± 0.12 | 1.45598 ± 0.00068 | C1CCCCCCC1 [cyclooctane] | –
773.8 ± 0.13 | 1.4236 ± 0.00068 | C1CCCCC1 [cyclohexane] | –
805.69 ± 0.24 | 1.44378 ± 0.0007 | C1=CCCCC1 [cyclohexene] | –
873.57 ± 0.11 | 1.49774 ± 0.00068 | c1ccccc1 [benzene] | –
1252 ± 0.4 | 1.50525 ± 0.0007 | CCOS(=O)(=O)[O-].CC[n+]1ccccc1 [1-ethylpyridinium ethyl sulfate] | –
